From publication PMC9065260 (Frontiers in Pharmacology, 2022)

Tests used:
KYSE70 cells = test: MTT assay for cell proliferation and cytotoxicity; type: cell-based; details: Homo sapiens, KYSE-70; MTT, 48 h, mean ± SD; read-out: IC50 KYSE70
Procedure: (§1) The compounds were dissolved in DMSO to make a 50 mM stock solution and were diluted to the concentration of working solutions with the complete growth medium before administration.
(§2) Cells were seeded in 96-well plates with densities of 2,200–2,500 cells/well in 100 μL. One day after seeding, the concentration of the test compounds between 0 and 50 μM, 0.1% DMSO was added to cells as control. […] After 48 h, MTT was added and incubated in the plate for 1–4 h in the incubator.

KYSE410 cells = test: MTT assay for cell proliferation and cytotoxicity; type: cell-based; details: Homo sapiens, KYSE-410; MTT, 48 h, mean ± SD; read-out: IC50 KYSE410
Procedure: as §1, §2

KYSE450 cells = test: MTT assay for cell proliferation and cytotoxicity; type: cell-based; details: Homo sapiens, KYSE-450; MTT, 48 h, mean ± SD; read-out: IC50 KYSE450
Procedure: as §1, §2

H1650 cells = test: MTT assay for cell proliferation and cytotoxicity; type: cell-based; details: Homo sapiens, NCI-H1650; MTT, 48 h, mean ± SD; read-out: IC50 H1650
Procedure: as §1, §2

HCC827 cells = test: MTT assay for cell proliferation and cytotoxicity; type: cell-based; details: Homo sapiens, 48 h, mean ± SD
Procedure: as §1, §2

[1] = tested on: human esophageal epithelial cell SHEE; test: MTT assay, toxicity against normal cells; type: cell-based; details: MTT, normal human esophageal epithelial cells, mean ± SD, read-out: IC50 SHEE
Procedure: Cells were seeded in 96-well plates with densities of 2,200–2,500 cells/well in 100 μL. One day after seeding, the concentration of the test compounds between 0 and 50 μM, 0.1% DMSO was added to cells as control. Approximately 2200-2500 transfected cells in 100 μL were incubated in quintuplicate in 96-well plates. After 48 h, MTT was added and incubated in the plate for 1–4 h in the incubator.

| Structure (SMILES) | IC50 (KYSE70 cells) [µM] | IC50 (KYSE410 cells) [µM] | IC50 (KYSE450 cells) [µM] | IC50 (H1650 cells) [µM] | IC50 (HCC827 cells) [µM] | IC50 [1] [µM] | melting point [°C] |
| --- | --- | --- | --- | --- | --- | --- | --- |
| COCCOc1cc2ncnc(Nc3cccc(-c4cn(Cc5ccccc5)nn4)c3)c2cc1OCCOC [Compound 3a, {3-[1-Benzyl-1H-(1,2,3)Triazol-4-yl]-Phenyl}-[6,7-Bis-(2-Methoxy-Ethoxy)-Quinazolin-4-yl]-Amine] | 5.85 ± 0.28 | 9.7 ± 0.75 | 5.27 ± 0.31 | 34 ± 2.77 | > 50 | > 50 | 89 to 92 |
| COCCOc1cc2ncnc(Nc3cccc(-c4cn(Cc5ccccc5I)nn4)c3)c2cc1OCCOC [Compound 3b, [6,7-Bis-(2-Methoxy-Ethoxy)-Quinazolin-4-yl]-{3-[1-(2-Iodo-Benzyl)-1H-(1,2,3)Triazol-4-yl]-Phenyl}-Amine] | 9.03 ± 0.82 | 17.6 ± 1.37 | 20.6 ± 1.87 | > 50 | > 50 | 8.05 ± 0.71 | 93 to 96 |
| COCCOc1cc2ncnc(Nc3cccc(-c4cn(Cc5ccccc5Br)nn4)c3)c2cc1OCCOC [Compound 3c, [6,7-Bis-(2-Methoxy-Ethoxy)-Quinazolin-4-yl]-{3-[1-(2-Bromo-Benzyl)-1H-(1,2,3)Triazol-4-yl]-Phenyl}-Amine] | 5.35 ± 0.34 | > 50 | 5.47 ± 0.29 | 5.72 ± 0.33 | > 50 | 22.4 ± 2.53 | 94 to 97 |
| COCCOc1cc2ncnc(Nc3cccc(-c4cn(-c5cccc(OC)c5)nn4)c3)c2cc1OCCOC [Compound 3e, [6,7-Bis-(2-Methoxy-Ethoxy)-Quinazolin-4-yl]-{3-[1-(3-Methoxy-Phenyl)-1H-(1,2,3)Triazol-4-yl]-Phenyl}-Amine] | 12.6 ± 1.01 | > 50 | 6.25 ± 0.35 | 21.1 ± 1.74 | > 50 | > 50 | – |
| COCCOc1cc2ncnc(Nc3cccc(-c4cn(-c5ccccc5F)nn4)c3)c2cc1OCCOC [Compound 3f, [6,7-Bis-(2-Methoxy-Ethoxy)-Quinazolin-4-yl]-{3-[1-(2-Fluoro-Phenyl)-1H-(1,2,3)Triazol-4-yl]-Phenyl}-Amine] | > 50 | > 50 | 34.2 ± 3.01 | > 50 | 17.8 ± 1.61 | 12.1 ± 1.33 | 83 to 86 |
| COCCOc1cc2ncnc(Nc3cccc(-c4cn(-c5ccc(F)cc5)nn4)c3)c2cc1OCCOC [Compound 3g, [6,7-Bis-(2-Methoxy-Ethoxy)-Quinazolin-4-yl]-{3-[1-(4-Fluoro-Phenyl)-1H-(1,2,3)Triazol-4-yl]-Phenyl}-Amine] | 5.46 ± 0.23 | > 50 | 44.5 ± 4.23 | 29.6 ± 2.18 | > 50 | 8.01 ± 0.83 | 88 to 91 |
| COCCOc1cc2ncnc(Nc3cccc(-c4cn(-c5ccccc5Cl)nn4)c3)c2cc1OCCOC [Compound 3h, [6,7-Bis-(2-Methoxy-Ethoxy)-Quinazolin-4-yl]-{3-[1-(2-Chloro-Phenyl)-1H-(1,2,3)Triazol-4-yl]-Phenyl}-Amine] | > 50 | > 50 | > 50 | > 50 | > 50 | 6.03 ± 0.57 | 131 to 134 |
| COCCOc1cc2ncnc(Nc3cccc(-c4cn(-c5ccccc5Br)nn4)c3)c2cc1OCCOC [Compound 3i, [6,7-Bis-(2-Methoxy-Ethoxy)-Quinazolin-4-yl]-{3-[1-(2-Bromo-Phenyl)-1H-(1,2,3)Triazol-4-yl]-Phenyl}-Amine] | 36.1 ± 3.17 | > 50 | > 50 | > 50 | 24.2 ± 2.34 | 6.23 ± 0.62 | 93 to 97 |
| COCCOc1cc2ncnc(Nc3cccc(-c4cn(-c5ccccc5)nn4)c3)c2cc1OCCOC [Compound 3o, [6,7-Bis-(2-Methoxy-Ethoxy)-Quinazolin-4-yl]-[3-(1-Phenyl-1H-(1,2,3)Triazol-4-yl)-Phenyl]-Amine] | > 50 | 49.5 ± 5.01 | 46.8 ± 4.63 | > 50 | > 50 | 14.2 ± 1.61 | – |
